Broadly, the IC50 is the concentration at which inhibition is half-maximal. Broadly, the ΔTm is the change in melting temperature against a reference sample.

The results in this text go back to ChEMBL document CHEMBL4765407, “Design, synthesis and high antitumor potential of new unsymmetrical bisacridine derivatives towards human solid tumors, specifically pancreatic cancers and their unique ability to stabilize DNA G-quadruplexes” (Eur J Med Chem, 2020).

In data set [1] the test system is DU-145. The data set can be described thus: Cytotoxicity against human DU-145 cells assessed as reduction in cell viability measured after 72 hrs by SRB assay. It is filed as functional, cell-based. The settings on record: DU-145, 72 h. In general terms: The SRB assay estimates cell density from bound dye.
The subject of data set [2] is HCT-116. Description: Cytotoxicity against human HCT-116 cells assessed as reduction in cell viability measured after 72 hrs by SRB assay. It counts as functional, cell-based. The settings on record: HCT-116, 72 h.
For data set [3], the system named is PANC-1. The data set can be described thus: Cytotoxicity against human PANC-1 cells assessed as reduction in cell viability measured after 72 hrs by SRB assay. It counts as functional, cell-based. The settings on record: PANC-1, 72 h.
The test system of data set [4] is MIA PaCa-2. The data set can be described thus: Cytotoxicity against human MIA PaCa-2 cells assessed as reduction in cell viability measured after 72 hrs by SRB assay. It is filed as functional, cell-based. The settings on record: MIA PaCa-2, 72 h.
Data set [5] relates to BXPC-3. The data set can be described thus: Cytotoxicity against human BXPC-3 cells assessed as reduction in cell viability measured after 72 hrs by SRB assay. It is filed as functional, cell-based. The settings on record: BXPC-3, 72 h.
Data set [6] concerns ASPC1. Description: Cytotoxicity against human ASPC1 cells assessed as reduction in cell viability measured after 72 hrs by SRB assay. It is filed as functional, cell-based. The settings on record: ASPC1, 72 h.
In data set [7] the test system is PANC-1. The data set can be described thus: Antitumour activity against human PANC-1 cells xenografted in Crl:Nu-Foxnl nu mouse assessed as inhibition of tumour growth at total effective dose of 160 mg/kg, iv measured on day 40. It counts as functional. The settings on record: PANC-1, iv, 960 h, time 40 day, read-out: TGI. (A xenograft is tissue or cells of one species grown in another, often human tumour cells in immunodeficient mice.)

Data set [8] relates to BXPC-3. Description: Antitumour activity against human BXPC-3 cells xenografted in Crl:Nu-Foxnl nu mouse assessed as inhibition of tumour growth at total effective dose of 160 mg/kg, iv measured on day 29. It is filed as functional. The settings on record: BXPC-3, iv, 696 h, time 29 day, read-out: TGI.
Data set [9] has as its system Quadruplex DNA. Description: Stabilization of 5'-FAM/3'-TAMRA labeled c-Myc promoter G4 quadruplex DNA FPu18 (unknown origin) assessed as change in melting temperature at 10 microM measured after 15 mins by FRET assay. It is filed as nucleic-acid assay.
Data set [10] relates to Quadruplex DNA. Description: Stabilization of 5'-FAM/3'-TAMRA labeled telomeric G4 quadruplex DNA F21T (unknown origin) assessed as change in melting temperature at 10 microM measured after 15 mins by FRET assay. It counts as nucleic-acid assay.
Data set [11] concerns Quadruplex DNA. The data set can be described thus: Stabilization of 5'-FAM/3'-TAMRA labeled K-Ras G4 quadruplex DNA (unknown origin) assessed as change in melting temperature at 10 microM measured after 15 mins by FRET assay. It counts as nucleic-acid assay.
The nature of data set [12]: Stabilization of ds 5'-FAM-d(TATAGCTATA-HEG-TATAGCTATA)-TAMRA-3' (unknown origin) assessed as change in melting temperature at 10 microM measured after 15 mins by FRET assay. The settings on record: Homo sapiens.
Data set [13] can be described thus: Toxicity in BALB/c mouse assessed as macroscopic anatomopathological changes at total dose of 120 mg/kg, iv administered as 3 times per week for 2 weeks measured for 65 days. The settings on record: in vivo, 1560 h, time 65 day. It is filed as organism-based.
A short description of data set [14]: Toxicity in BALB/c mouse assessed as effect on body weight at total dose of 120 mg/kg, iv administered as 3 times per week for 2 weeks measured for 65 days. It is filed as organism-based. The settings on record: in vivo, 1560 h, time 65 day.
The test system of data set [15] is NCI-H460. The data set can be described thus: Cytotoxicity against human NCI-H460 cells assessed as reduction in cell viability measured after 72 hrs by SRB assay. It is filed as functional, cell-based. The settings on record: NCI-H460, 72 h.
In data set [16] the test system is MCF7. The data set can be described thus: Cytotoxicity against human MCF7 cells assessed as reduction in cell viability measured after 72 hrs by SRB assay. It is filed as functional, cell-based. The settings on record: MCF7, 72 h.
Data set [17] has as its system MDA-MB-231. The data set can be described thus: Cytotoxicity against human MDA-MB-231 cells assessed as reduction in cell viability measured after 72 hrs by SRB assay. It counts as functional, cell-based. The settings on record: MDA-MB-231, 72 h.
Data set [18] has as its system Capan-2. Description: Cytotoxicity against human Capan-2 cells assessed as reduction in cell viability measured after 72 hrs by SRB assay. The settings on record: Capan-2, 72 h. It is filed as functional, cell-based.
Data set [19] relates to PANC-1. The data set can be described thus: Antitumour activity against human PANC-1 cells xenografted in Crl:Nu-Foxnl nu mouse assessed as inhibition of tumour growth at total effective dose of 16 mg/kg, iv measured on day 33. It counts as functional. The settings on record: PANC-1, iv, 792 h, time 33 day, read-out: TGI.
Data set [20] deals with MIA PaCa-2. The data set can be described thus: Antitumour activity against human MIA PaCa-2 cells xenografted in Crl:Nu-Foxnl nu mouse assessed as inhibition of tumour growth at total effective dose of 12 mg/kg, ip measured on day 15. It is filed as functional. The settings on record: MIA PaCa-2, ip, 360 h, time 15 day, read-out: TGI.
The subject of data set [21] is BXPC-3. The data set can be described thus: Antitumour activity against human BXPC-3 cells xenografted in Crl:Nu-Foxnl nu mouse assessed as inhibition of tumour growth at total effective dose of 16 mg/kg, iv measured on day 44. It is filed as functional. The settings on record: BXPC-3, iv, 1056 h, time 44 day, read-out: TGI.
In data set [22] the test system is BXPC-3. The data set can be described thus: Antitumour activity against human BXPC-3 cells xenografted in Crl:Nu-Foxnl nu mouse assessed as inhibition of tumour growth at total effective dose of 16 mg/kg, iv measured on day 32. It is filed as functional. The settings on record: BXPC-3, iv, 768 h, time 32 day, read-out: TGI.
The subject of data set [23] is ASPC1. The data set can be described thus: Antitumour activity against human ASPC1 cells xenografted in Crl:Nu-Foxnl nu mouse assessed as inhibition of tumour growth at total effective dose of 16 mg/kg, iv measured on day 39. It is filed as functional. The settings on record: 936 h, time 39 day, read-out: TGI.
Data set [24] concerns DU-145. Description: Antitumour activity against human DU-145 cells xenografted in Crl:Nu-Foxnl nu mouse assessed as inhibition of tumour growth at total effective dose of 16 mg/kg, iv measured on day 33. The settings on record: DU-145, iv, 792 h, time 33 day, read-out: TGI. It counts as functional.
For data set [25], the system named is MDA-MB-231. The data set can be described thus: Antitumour activity against human MDA-MB-231 cells xenografted in Crl:Nu-Foxnl nu mouse assessed as inhibition of tumour growth at total effective dose of 32 mg/kg, iv measured on day 32. The settings on record: MDA-MB-231, iv, 768 h, time 32 day, read-out: TGI. It counts as functional.
The nature of data set [26]: Toxicity in BALB/c mouse assessed as effect on body weight at total dose of 6 mg/kg, iv administered as 3 times per week for 2 weeks measured for 71 days. It is filed as organism-based. The settings on record: in vivo, 1704 h, time 71 day.
Data set [27] in a line: Toxicity in BALB/c mouse assessed as macroscopic anatomopathological changes at total dose of 6 mg/kg, iv administered as 3 times per week for 2 weeks measured for 71 days. The settings on record: in vivo, 1704 h, time 71 day. It is filed as organism-based.

On to `Cc1cc(C(N)CCN2CCN(CCCNc3ccc4ncn5c6ccccc6c(=O)c3c45)CC2)c([N+](=O)[O-])c2cc3ccccc3nc12` (configuration not stated), for which the IC50 was found to be 0.062 µM in data set [1]; 0.045 µM in [2]; 0.065 µM in data set [3]; 0.058 µM in [4]; 0.351 µM in [5]; 0.24 µM in data set [6]. The inhibition in vivo at 160 mg/kg in data set [7] was determined as 64%; in data set [8], 40%. The ΔTm in data set [9] was found to be 27 °C; in [10], 19.2 °C; in data set [11], 19.9 °C; in data set [12], 3.6 °C. Also, the Activity result in data set [13] and in data set [14] was “Non-Toxic” each time.

Regarding `O=c1c2ccccc2n2cnc3ccc(NCCCN4CCN(CCCNc5c6ccccc6nc6cccc([N+](=O)[O-])c56)CC4)c1c32`, the IC50 turned out to be 0.022 µM in [1]; 0.015 µM in data set [15]; 0.025 µM in data set [2]; 0.082 µM in data set [16]; 0.021 µM in [17]; 0.024 µM in data set [3]. Further, the IC50 in data set [4] stood at 0.039 µM; in data set [5], 0.054 µM; in data set [6], 0.069 µM; in data set [18] it was 0.032 µM. In addition, the inhibition in vivo at 16 mg/kg in data set [19] is 80%; in [21], 81%; in data set [22], 48%; in data set [23], 29%; in data set [24], 61%. In data set [20], the inhibition in vivo at 12 mg/kg was determined as 38%. Also, the inhibition in vivo at 32 mg/kg in data set [25] was 53%. In addition, the Activity result in data set [26] and in data set [27] was “Non-Toxic” in each case. In addition, the ΔTm in [9] was 23.3 °C; in [10] it was 30 °C; in [11], 27.6 °C; in data set [12] it was 5.4 °C.
